Measured values taken from article PMC5218480 (PLoS ONE, 2017).

Test system: MV-4-11 cells
Experiment: Gene expression microarray analysis (Affymetrix PrimeView) and GSEA
Type: cell-based, human
Design: RFU PODN (11730768_x_at) / Fold change /veh PODN (11730768_x_at) / RFU LINC00158 (11744669_a_at) / Fold change /veh LINC00158 (11744669_a_at) / RFU DUSP10 (11751237_a_at) / Fold change /veh DUSP10 (11751237_a_at) / RFU ID3 (11757404_x_at) / Fold change /veh ID3 (11757404_x_at) / RFU PLEKHG5 (11737974_s_at) / Fold change /veh PLEKHG5 (11737974_s_at) / RFU LRRC4B (11730491_at) / Fold change /veh LRRC4B (11730491_at) / RFU GIMAP4 (11747438_a_at) / Fold change /veh GIMAP4 (11747438_a_at) / RFU KRT8 (11758183_x_at) / Fold change /veh KRT8 (11758183_x_at) / RFU CNN1 (11734310_a_at) / Fold change /veh CNN1 (11734310_a_at) / RFU VPS37D (11726825_at) / Fold change /veh VPS37D (11726825_at) / RFU C10orf10 (11716522_x_at) / Fold change /veh C10orf10 (11716522_x_at) / RFU KIR2DL2 /// KIR2DL4 /// KIR2DL5A /// KIR2DL5B /// KIR2DS1 /// KIR2DS2 /// KIR2DS3 /// KIR2DS4 /// KIR3DL3 /// KIR3DL3 /// KIR3DS1 (11738374_at) / Fold change /veh KIR2DL2 /// KIR2DL4 /// KIR2DL5A /// KIR2DL5B /// KIR2DS1 /// KIR2DS2 /// KIR2DS3 /// KIR2DS4 /// KIR3DL3 /// KIR3DL3 /// KIR3DS1 (11738374_at) / RFU C1QL1 (11718748_at) / Fold change /veh C1QL1 (11718748_at) / RFU TMPRSS4 (11747572_a_at) / Fold change /veh TMPRSS4 (11747572_a_at) / RFU HAMP (11756126_x_at) / Fold change /veh HAMP (11756126_x_at) / RFU RNFT2 (11725882_a_at) / Fold change /veh RNFT2 (11725882_a_at) / RFU NR4A2 (11747474_a_at) / Fold change /veh NR4A2 (11747474_a_at) / RFU ABCC12 (11746883_a_at) / Fold change /veh ABCC12 (11746883_a_at) / RFU TMEM136 (11760407_x_at) / Fold change /veh TMEM136 (11760407_x_at) / RFU CLDN22 /// WWC2 (11732394_at) / Fold change /veh CLDN22 /// WWC2 (11732394_at) / RFU HLA-DPB1 (11760878_x_at) / Fold change /veh HLA-DPB1 (11760878_x_at) / RFU SPINT1 (11716480_a_at) / Fold change /veh SPINT1 (11716480_a_at) / RFU GAP43 (11754022_s_at) / Fold change /veh GAP43 (11754022_s_at) / RFU A4GNT (11735810_at) / Fold change /veh A4GNT (11735810_at) / RFU PRB3 (11715151_x_at) / Fold change /veh PRB3 (11715151_x_at) / RFU TUBB4B (11761932_at) / Fold change /veh TUBB4B (11761932_at) / RFU CAPN14 (11732068_a_at) / Fold change /veh CAPN14 (11732068_a_at) / RFU TMCC2 (11721928_a_at) / Fold change /veh TMCC2 (11721928_a_at) / RFU IRGQ (11745062_a_at) / Fold change /veh IRGQ (11745062_a_at) / RFU FAM174B (11720279_a_at) / Fold change /veh FAM174B (11720279_a_at) / RFU TMPRSS4 (11748680_a_at) / Fold change /veh TMPRSS4 (11748680_a_at) / RFU FAM212B (11763350_a_at) / Fold change /veh FAM212B (11763350_a_at) / RFU PLEKHG5 (11743358_a_at) / Fold change /veh PLEKHG5 (11743358_a_at) / RFU ZSCAN30 (11745921_a_at) / Fold change /veh ZSCAN30 (11745921_a_at) / RFU CMKLR1 (11741424_a_at) / Fold change /veh CMKLR1 (11741424_a_at) / RFU LOC101060620 /// MAPK8IP1 (11723275_at) / Fold change /veh LOC101060620 /// MAPK8IP1 (11723275_at) / RFU SPTSSB (11747773_x_at) / Fold change /veh SPTSSB (11747773_x_at) / RFU PRSS12 (11739890_at) / Fold change /veh PRSS12 (11739890_at) / RFU BIN1 (11741810_x_at) / Fold change /veh BIN1 (11741810_x_at) / RFU WNT11 (11732464_a_at) / Fold change /veh WNT11 (11732464_a_at) / RFU C10orf10 (11716521_a_at) / Fold change /veh C10orf10 (11716521_a_at) / RFU C5orf56 (11738089_at) / Fold change /veh C5orf56 (11738089_at) / RFU CYB561 (11721691_x_at) / Fold change /veh CYB561 (11721691_x_at) / RFU ANKRD19P (11752326_a_at) / Fold change /veh ANKRD19P (11752326_a_at) / RFU OR2T12 /// OR2T33 /// OR2T8 (11738714_s_at) / Fold change /veh OR2T12 /// OR2T33 /// OR2T8 (11738714_s_at) / RFU VCAN (11748164_a_at) / Fold change /veh VCAN (11748164_a_at) / RFU JSRP1 (11732532_at) / Fold change /veh JSRP1 (11732532_at) / RFU KRTAP10-11 (11738290_x_at) / Fold change /veh KRTAP10-11 (11738290_x_at) / RFU MYO3A (11730013_a_at) / Fold change /veh MYO3A (11730013_a_at) / RFU EBF3 (11725865_a_at) / Fold change /veh EBF3 (11725865_a_at) / RFU CAMK2N1 (11719241_x_at) / Fold change /veh CAMK2N1 (11719241_x_at) / RFU C5orf56 (11738088_a_at) / Fold change /veh C5orf56 (11738088_a_at) / RFU OLFML3 (11715873_a_at) / Fold change /veh OLFML3 (11715873_a_at) / RFU LOC100653217 /// NTM (11731650_a_at) / Fold change /veh LOC100653217 /// NTM (11731650_a_at) / RFU MAPK11 (11762145_a_at) / Fold change /veh MAPK11 (11762145_a_at) / RFU FIZ1 (11724087_x_at) / Fold change /veh FIZ1 (11724087_x_at) / RFU OASL (11726364_x_at) / Fold change /veh OASL (11726364_x_at) / RFU SOX15 (11748057_x_at) / Fold change /veh SOX15 (11748057_x_at) / RFU CD79A (11719716_a_at) / Fold change /veh CD79A (11719716_a_at) / RFU HIST1H1D (11736915_at) / Fold change /veh HIST1H1D (11736915_at) / RFU CASKIN2 (11723855_a_at) / Fold change /veh CASKIN2 (11723855_a_at) / RFU LOC730098 (11760151_x_at) / Fold change /veh LOC730098 (11760151_x_at) / RFU OR4N2 (11742367_at) / Fold change /veh OR4N2 (11742367_at) / RFU PRRT2 (11749266_a_at) / Fold change /veh PRRT2 (11749266_a_at) / RFU SNX32 (11753110_a_at) / Fold change /veh SNX32 (11753110_a_at) / RFU CDHR5 (11726645_a_at) / Fold change /veh CDHR5 (11726645_a_at) / RFU RCAN1 (11760418_a_at) / Fold change /veh RCAN1 (11760418_a_at) / RFU FAM167A (11723789_a_at) / Fold change /veh FAM167A (11723789_a_at) / RFU FAM26E (11764081_at) / Fold change /veh FAM26E (11764081_at) / RFU ISYNA1 (11749810_s_at) / Fold change /veh ISYNA1 (11749810_s_at) / RFU ACY1 (11761880_at) / Fold change /veh ACY1 (11761880_at) / RFU 11764098_at / Fold change /veh 11764098_at / RFU SAMD14 (11745864_x_at) / Fold change /veh SAMD14 (11745864_x_at) / RFU NPB (11741838_a_at) / Fold change /veh NPB (11741838_a_at) / RFU TMPRSS6 (11731388_a_at) / Fold change /veh TMPRSS6 (11731388_a_at) / RFU KRTAP10-2 (11738614_at) / Fold change /veh KRTAP10-2 (11738614_at) / RFU ARHGAP8 /// PRR5-ARHGAP8 (11727945_x_at) / Fold change /veh ARHGAP8 /// PRR5-ARHGAP8 (11727945_x_at) / RFU KRTAP5-7 /// NADSYN1 (11734609_at) / Fold change /veh KRTAP5-7 /// NADSYN1 (11734609_at) / RFU RASL12 (11751679_a_at) / Fold change /veh RASL12 (11751679_a_at) / RFU CDKN2B (11736163_a_at) / Fold change /veh CDKN2B (11736163_a_at) / RFU PRF1 (11729649_at) / Fold change /veh PRF1 (11729649_at) / RFU, ZNF638 /// ZNF638-IT1 / Fold change vs veh, ZNF638 /// ZNF638-IT1 / RFU, PANK3 / Fold change vs veh, PANK3 / RFU, SH3YL1 / Fold change vs veh, SH3YL1 / RFU, ZEB2 / Fold change vs veh, ZEB2 / RFU, NRIP1 / Fold change vs veh, NRIP1 / RFU, PTTG1IP / Fold change vs veh, PTTG1IP / RFU, CAPN2 / Fold change vs veh, CAPN2 / RFU, MED14 / Fold change vs veh, MED14 / RFU, SNORA58 / Fold change vs veh, SNORA58 / RFU, C1orf63 / Fold change vs veh, C1orf63 / RFU, LRRFIP1 / Fold change vs veh, LRRFIP1 / RFU, NDUFAF7 / Fold change vs veh, NDUFAF7 / RFU, SLC12A2 / Fold change vs veh, SLC12A2 / RFU, IBTK / Fold change vs veh, IBTK / RFU, ESF1 / Fold change vs veh, ESF1 / Fold change vs veh, TMEM50B / RFU, TAOK1 / Fold change vs veh, TAOK1 / RFU, ACBD3 / Fold change vs veh, ACBD3 / RFU, TMA16 / Fold change vs veh, TMA16 / RFU, RWDD3 / Fold change vs veh, RWDD3 / RFU, BCAT1 / Fold change vs veh, BCAT1 / RFU, EDEM3 / Fold change vs veh, EDEM3 / RFU, TMEM33 / Fold change vs veh, TMEM33 / RFU, WDR75 / Fold change vs veh, WDR75 / RFU, AHCTF1 / Fold change vs veh, AHCTF1 / RFU, TFRC / Fold change vs veh, TFRC / RFU, ZDHHC17 / Fold change vs veh, ZDHHC17 / RFU, NOM1 / Fold change vs veh, NOM1 / RFU, ARL8B / Fold change vs veh, ARL8B / RFU, ZBTB11 / Fold change vs veh, ZBTB11 / RFU, TAMM41 / Fold change vs veh, TAMM41 / RFU, KIAA1704 /// LOC100996395 / Fold change vs veh, KIAA1704 /// LOC100996395 / RFU, ING1 / Fold change vs veh, ING1 / RFU, TRMT61B / Fold change vs veh, TRMT61B / RFU, FUBP3 / Fold change vs veh, FUBP3 / RFU, TP53 / Fold change vs veh, TP53 / RFU, TNKS2 / Fold change vs veh, TNKS2 / RFU, ZFP14 / Fold change vs veh, ZFP14 / RFU, ACTR2 / Fold change vs veh, ACTR2 / RFU, PPP3R1 / Fold change vs veh, PPP3R1 / RFU, PIK3R1 / Fold change vs veh, PIK3R1 / RFU, HNRNPA1 / Fold change vs veh, HNRNPA1 / RFU, RNF170 / Fold change vs veh, RNF170 / RFU, ZNF28 / Fold change vs veh, ZNF28 / RFU, RNGTT / Fold change vs veh, RNGTT / RFU, OGT / Fold change vs veh, OGT / RFU, BRD1 / Fold change vs veh, BRD1 / RFU, MARS / Fold change vs veh, MARS / RFU, ZNF655 / Fold change vs veh, ZNF655 / RFU, FAHD1 / Fold change vs veh, FAHD1 / RFU, BDP1 / Fold change vs veh, BDP1 / RFU, LRRCC1 / Fold change vs veh, LRRCC1 / RFU, ARID1A / Fold change vs veh, ARID1A / RFU, ZNF146 / Fold change vs veh, ZNF146 / RFU, ZNF330 / Fold change vs veh, ZNF330 / RFU, GPN3 / Fold change vs veh, GPN3 / RFU, C9orf123 / Fold change vs veh, C9orf123 / RFU, N4BP2L2 / Fold change vs veh, N4BP2L2 / RFU, ARFIP1 / Fold change vs veh, ARFIP1 / RFU, FAM179B / Fold change vs veh, FAM179B / RFU, BCL10 / Fold change vs veh, BCL10 / RFU, UHRF1BP1L / Fold change vs veh, UHRF1BP1L / RFU, BET1 / Fold change vs veh, BET1 / RFU, CNOT2 / Fold change vs veh, CNOT2 / RFU, ZNF268 / Fold change vs veh, ZNF268 / Fold change vs veh, ZNF507 / RFU, DGCR2 / Fold change vs veh, DGCR2 / RFU, WDSUB1 / Fold change vs veh, WDSUB1 / Fold change vs veh, HSP90B1 /// MIR3652 / RFU, ADSS / Fold change vs veh, ADSS / RFU, GK / Fold change vs veh, GK / RFU, ZNF148 / Fold change vs veh, ZNF148 / RFU, TAF9 / Fold change vs veh, TAF9 / RFU, SLC1A5 / Fold change vs veh, SLC1A5 / RFU, SLMO2 / Fold change vs veh, SLMO2 / RFU, ABCC4 / Fold change vs veh, ABCC4 / RFU, LOC101060439 /// RAP1B / Fold change vs veh, LOC101060439 /// RAP1B / RFU, RFX7 / Fold change vs veh, RFX7 / RFU, GTPBP10 / Fold change vs veh, GTPBP10 / RFU, CNEP1R1 / Fold change vs veh, CNEP1R1 / RFU, BIVM-ERCC5 /// ERCC5 / Fold change vs veh, BIVM-ERCC5 /// ERCC5 / RFU, ILF3 / Fold change vs veh, ILF3 / RFU 11762660_at / Fold change /veh 11762660_at / RFU VCAN (11757783_s_at) / Fold change /veh VCAN (11757783_s_at) / RFU DDX43 (11728927_at) / Fold change /veh DDX43 (11728927_at) / RFU KRT8 (11758188_x_at) / Fold change /veh KRT8 (11758188_x_at) / RFU NKD1 (11759106_at) / Fold change /veh NKD1 (11759106_at) / RFU SRD5A1 (11742802_a_at) / Fold change /veh SRD5A1 (11742802_a_at) / RFU TPSAB1 /// TPSB2 (11721975_s_at) / Fold change /veh TPSAB1 /// TPSB2 (11721975_s_at) / RFU GSTM3 (11746129_a_at) / Fold change /veh GSTM3 (11746129_a_at) / RFU IL23R (11737362_x_at) / Fold change /veh IL23R (11737362_x_at) / RFU TMEM51 (11727254_a_at) / Fold change /veh TMEM51 (11727254_a_at) / RFU PIWIL2 (11732686_x_at) / Fold change /veh PIWIL2 (11732686_x_at) / RFU ORM1 (11744905_x_at) / Fold change /veh ORM1 (11744905_x_at) / RFU CCDC152 (11743942_at) / Fold change /veh CCDC152 (11743942_at) / RFU ECM1 (11717891_a_at) / Fold change /veh ECM1 (11717891_a_at) / RFU IL23R (11748794_a_at) / Fold change /veh IL23R (11748794_a_at) / RFU TNFAIP8L3 (11732012_x_at) / Fold change /veh TNFAIP8L3 (11732012_x_at) / RFU MBOAT4 (11741988_at) / Fold change /veh MBOAT4 (11741988_at) / RFU 11764193_at / Fold change /veh 11764193_at / RFU TMEM53 (11763286_at) / Fold change /veh TMEM53 (11763286_at) / RFU MAGEB2 (11727129_at) / Fold change /veh MAGEB2 (11727129_at) / RFU TMEM200A (11744735_a_at) / Fold change /veh TMEM200A (11744735_a_at) / RFU CCDC152 (11751479_a_at) / Fold change /veh CCDC152 (11751479_a_at) / RFU FAM211A (11726209_a_at) / Fold change /veh FAM211A (11726209_a_at) / RFU RGS16 (11746705_a_at) / Fold change /veh RGS16 (11746705_a_at) / RFU VCAN (11755009_s_at) / Fold change /veh VCAN (11755009_s_at) / RFU RHOB (11743442_s_at) / Fold change /veh RHOB (11743442_s_at) / RFU RGS16 (11720943_a_at) / Fold change /veh RGS16 (11720943_a_at) / RFU RGS16 (11720944_at) / Fold change /veh RGS16 (11720944_at) / RFU, VPS4B / Fold change vs veh, VPS4B / RFU, CREB1 / Fold change vs veh, CREB1 / RFU, DNAJC13 / Fold change vs veh, DNAJC13 / RFU, GNAQ / Fold change vs veh, GNAQ / RFU, CDK5R1 / Fold change vs veh, CDK5R1 / RFU, ZRANB3 / Fold change vs veh, ZRANB3 / RFU, CUL4A / Fold change vs veh, CUL4A / RFU, CCNY / Fold change vs veh, CCNY / RFU, UFL1 / Fold change vs veh, UFL1 / RFU, COG3 / Fold change vs veh, COG3 / RFU, DIAPH2 / Fold change vs veh, DIAPH2 / RFU, SKA2 / Fold change vs veh, SKA2 / RFU, AFF3 / Fold change vs veh, AFF3 / RFU, LMF1 / Fold change vs veh, LMF1 / RFU, IPO11 / Fold change vs veh, IPO11 / RFU, DFFB / Fold change vs veh, DFFB / RFU, FOXP1 / Fold change vs veh, FOXP1 / RFU, CARD8 / Fold change vs veh, CARD8 / RFU, STRN3 / Fold change vs veh, STRN3 / RFU, ADK / Fold change vs veh, ADK / RFU, RASSF2 / Fold change vs veh, RASSF2 / RFU, WIPF1 / Fold change vs veh, WIPF1 / RFU, LARP1B / Fold change vs veh, LARP1B / RFU, RASA1 / Fold change vs veh, RASA1 / RFU, RB1 / Fold change vs veh, RB1 / RFU, PPFIA1 / Fold change vs veh, PPFIA1 / RFU, MAT2A / Fold change vs veh, MAT2A / RFU, CCT5 / Fold change vs veh, CCT5 / RFU, WDR92 / Fold change vs veh, WDR92 / RFU, CUX1 / Fold change vs veh, CUX1 / RFU, TTC7A / Fold change vs veh, TTC7A / RFU, TMEM135 / Fold change vs veh, TMEM135 / RFU, DEPTOR / Fold change vs veh, DEPTOR / RFU, CPM / Fold change vs veh, CPM / RFU, DNAJB6 / Fold change vs veh, DNAJB6 / RFU, CACNA2D3 / Fold change vs veh, CACNA2D3 / RFU, DTX4 / Fold change vs veh, DTX4 / RFU, TFCP2 / Fold change vs veh, TFCP2 / RFU, GMCL1 /// GMCL1P1 / Fold change vs veh, GMCL1 /// GMCL1P1 / RFU, AEBP2 / Fold change vs veh, AEBP2 / RFU, SNHG1 /// SNORD22 /// SNORD25 /// SNORD26 /// SNORD27 /// SNORD28 /// SNORD29 /// SNORD31 / Fold change vs veh, SNHG1 /// SNORD22 /// SNORD25 /// SNORD26 /// SNORD27 /// SNORD28 /// SNORD29 /// SNORD31 / Fold change (Aza/veh), C12orf56 (ProbeSet 11735607_a_at) / Fold change (ACY-1035/veh), C12orf56 (ProbeSet 11735607_a_at) / Fold change (Aza/veh), FGFR1OP (ProbeSet 11751329_s_at) / Fold change (ACY-1035/veh), FGFR1OP (ProbeSet 11751329_s_at) / Fold change (Aza/veh), VPS36 (ProbeSet 11739960_a_at) / Fold change (ACY-1035/veh), VPS36 (ProbeSet 11739960_a_at) / RFU SYPL1 (11715823_x_at) / Fold change /veh SYPL1 (11715823_x_at) / RFU IGFBP7 (11715501_s_at) / Fold change /veh IGFBP7 (11715501_s_at) / RFU REEP3 (11722064_at) / Fold change /veh REEP3 (11722064_at) / RFU IGLL1 (11728026_x_at) / Fold change /veh IGLL1 (11728026_x_at): dose or concentration left out as unconfirmed
Details: MV-4-11 cells, 48 hours

`Nc1ccc(-c2cccs2)cc1NC(=O)c1ccc2c(c1)cc(C1CC1)n2CCN1CCOCC1` [ACY-1035] was tested, and the “Fold change /veh CCDC152 (11751479_a_at)” value was 1.05.
